From patent US10150771B2, “Triazolopyrazinones as PDE1 inhibitors” (H. Lundbeck A/S, priority 2014, dated 2018)

Tests used:
Type in all cases: biochemical
PDE1A = PDE1A (Homo sapiens, UniProt P54750); assay: PDE1 inhibition assay (SPA), PDE1A; conditions: for IC50: concentration required to reach 50% inhibition of the enzyme, 15 nM tritium labelled cAMP, read-out: PDE1A inhibition (nM or %): IC50; for inhibition at 10 µM: 1 h, % inhibition of the enzyme at a concentration of 10 micro molar of the compound, read-out: PDE1A inhibition (nM or %): % inhib
Sequence of PDE1A (P54750 whole entry): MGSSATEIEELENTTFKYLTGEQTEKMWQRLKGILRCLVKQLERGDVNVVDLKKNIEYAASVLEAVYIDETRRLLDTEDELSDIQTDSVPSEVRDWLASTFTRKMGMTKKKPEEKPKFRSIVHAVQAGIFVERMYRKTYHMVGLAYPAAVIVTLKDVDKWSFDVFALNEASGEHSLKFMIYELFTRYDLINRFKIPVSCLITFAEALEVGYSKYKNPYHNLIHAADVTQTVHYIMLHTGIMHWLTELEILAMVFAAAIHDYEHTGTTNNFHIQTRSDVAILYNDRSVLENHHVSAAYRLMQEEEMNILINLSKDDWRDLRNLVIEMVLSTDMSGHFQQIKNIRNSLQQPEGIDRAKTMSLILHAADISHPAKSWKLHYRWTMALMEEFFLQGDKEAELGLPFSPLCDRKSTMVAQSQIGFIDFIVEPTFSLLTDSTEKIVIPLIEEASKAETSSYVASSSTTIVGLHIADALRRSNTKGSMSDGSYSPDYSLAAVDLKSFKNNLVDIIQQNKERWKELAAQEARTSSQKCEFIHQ
Experimental: (§1) PDE1 Inhibition Assay PDE1A, PDE1B and PDE1C assays were performed as follows: the assays were performed in 60 μL samples containing a fixed amount of the PDE1 enzym1 (sufficient to convert 20-25% of the cyclic nucleotide substrate), a buffer (50 mM HEPES pH 7.6; 10 mM MgCl2; 0.02% Tween20), 0.1 mg/ml BSA, 15 nM tritium labelled cAMP and varying amounts of inhibitors. Reactions were initiated by addition of the cyclic nucleotide substrate, and reactions were allowed to proceed for 1 h at room temperature before being terminated through mixing with 20 μL (0.2 mg) yttrium silicate SPA beads (PerkinElmer). The beads were allowed to settle for 1 h in the dark before the plates were counted in a Wallac 1450 Microbeta counter. The measured signals were converted to activity relative to an uninhibited control (100%) and IC50 values were calculated using XIFit (model 205, IDBS).

PDE1C = PDE1C (Homo sapiens, UniProt Q14123); assay: PDE1 inhibition assay (SPA), PDE1C; conditions: for IC50: concentration required to reach 50% inhibition of the enzyme, 15 nM tritium labelled cAMP, read-out: PDE1C inhibition (nM or %): IC50
Sequence of PDE1C (Q14123 whole entry): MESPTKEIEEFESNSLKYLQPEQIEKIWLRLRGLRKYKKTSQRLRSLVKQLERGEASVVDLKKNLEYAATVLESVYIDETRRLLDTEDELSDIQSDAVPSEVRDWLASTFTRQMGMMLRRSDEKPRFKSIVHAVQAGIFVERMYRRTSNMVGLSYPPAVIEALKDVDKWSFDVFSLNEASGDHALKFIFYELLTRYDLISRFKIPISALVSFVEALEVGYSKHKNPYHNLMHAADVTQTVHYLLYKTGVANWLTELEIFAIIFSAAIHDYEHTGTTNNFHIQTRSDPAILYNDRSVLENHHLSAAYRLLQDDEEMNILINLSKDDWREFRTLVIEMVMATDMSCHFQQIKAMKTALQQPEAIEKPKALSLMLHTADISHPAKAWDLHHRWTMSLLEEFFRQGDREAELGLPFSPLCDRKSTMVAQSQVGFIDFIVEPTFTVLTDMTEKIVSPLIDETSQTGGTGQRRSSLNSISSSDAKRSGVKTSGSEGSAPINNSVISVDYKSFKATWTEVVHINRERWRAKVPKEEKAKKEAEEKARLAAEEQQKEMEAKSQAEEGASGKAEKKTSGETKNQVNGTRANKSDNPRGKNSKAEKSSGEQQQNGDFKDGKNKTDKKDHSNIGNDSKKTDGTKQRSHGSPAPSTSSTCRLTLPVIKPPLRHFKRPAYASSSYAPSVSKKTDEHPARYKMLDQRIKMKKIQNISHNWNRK
Experimental: as §1

PDE1B = PDE1B (Homo sapiens, UniProt Q01064); assay: PDE1 inhibition assay (SPA), PDE1B; conditions: for IC50: concentration required to reach 50% inhibition of the enzyme, 15 nM tritium labelled cAMP, read-out: PDE1B inhibition (nM or %): IC50; for inhibition at 10 µM: 1 h, % inhibition of the enzyme at a concentration of 10 micro molar of the compound, read-out: PDE1B inhibition (nM or %): % inhib
Sequence of PDE1B (Q01064 whole entry): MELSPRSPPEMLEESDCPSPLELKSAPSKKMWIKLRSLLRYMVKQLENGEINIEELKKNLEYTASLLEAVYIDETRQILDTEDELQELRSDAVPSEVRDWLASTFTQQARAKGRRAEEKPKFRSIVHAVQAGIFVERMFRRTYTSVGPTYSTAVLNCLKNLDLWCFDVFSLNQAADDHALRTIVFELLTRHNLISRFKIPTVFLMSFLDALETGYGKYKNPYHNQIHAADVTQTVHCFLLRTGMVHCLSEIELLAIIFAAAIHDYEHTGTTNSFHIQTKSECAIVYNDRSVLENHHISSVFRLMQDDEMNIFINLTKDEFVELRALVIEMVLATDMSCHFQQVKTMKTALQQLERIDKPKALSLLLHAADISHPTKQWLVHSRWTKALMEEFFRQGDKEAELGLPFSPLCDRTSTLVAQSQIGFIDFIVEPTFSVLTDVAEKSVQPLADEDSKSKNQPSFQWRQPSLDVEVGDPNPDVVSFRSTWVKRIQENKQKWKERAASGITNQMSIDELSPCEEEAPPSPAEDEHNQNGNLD
Experimental: as §1

Row | Structure (SMILES) | IC50 (PDE1A) [nM] | IC50 (PDE1C) [nM] | IC50 (PDE1B) [nM] | inhibition at 10 µM (PDE1A) [%] | inhibition at 10 µM (PDE1B) [%] | PDE1C inhibition (nM or %): % inhib (PDE1C; % inhibition of the enzyme at a concentration of 10 micro molar of the compound) [%]
1 | Cc1ccccc1Cc1cn2c(C3CCOCC3)nnc2c(=O)n1CC1CCCC1 [7-(cyclopentylmethyl)-6-(2-methylbenzyl)-3-(tetrahydro-2H-pyran-4-yl)-[1,2,4]triazolo[4,3-a]pyrazin-8(7H)-one] | 251 | 23 | 260 | – | – | –
2 | CCCc1nnc2c(=O)n(CC3CCC(C)(C)CC3)ccn12 [7-((4,4-dimethylcyclohexyl)methyl)-3-propyl-[1,2,4]triazolo[4,3-a]pyrazin-8(7H)-one] | 130 | 110 | 110 | – | – | –
3 | Cc1ccc(Cc2cn3c(C4CCOCC4)nnc3c(=O)n2CC2CCCCC2)cc1 [7-(cyclohexylmethyl)-6-(4-methylbenzyl)-3-(tetrahydro-2H-pyran-4-yl)-[1,2,4]triazolo[4,3-a]pyrazin-8(7H)-one] | 1 | 1 | 2 | – | – | –
4 | CCCc1nnc2c(=O)n(Cc3cccc(F)c3)cc([C@H]3CCOC3)n12 (single isomer, unassigned) | 1610 | 260 | 2300 | – | – | –
5 | CCCc1nnc2c(=O)n(Cc3ccccc3F)ccn12 [7-(2-Fluorobenzyl)-3-propyl-[1,2,4]triazolo[4,3-a]pyrazin-8(7H)-one] | 860 | 130 | 1000 | – | – | –
6 | Cn1c(Cc2ccccc2)cn2c(C3CCOCC3)nnc2c1=O [6-benzyl-7-methyl-3-(tetrahydro-2H-pyran-4-yl)-[1,2,4]triazolo[4,3-a]pyrazin-8(7H)-one] | 2000 | 2800 | 1600 | – | – | –
7 | CCCc1nnc2c(=O)n(Cc3ccc(C(F)(F)F)cc3)ccn12 [3-Propyl-7-(4-(trifluoromethyl)benzyl)-[1,2,4]triazolo[4,3-a]pyrazin-8(7H)-one] | 1200 | 2100 | 570 | – | – | –
8 | O=c1c2nnc(C3CCOCC3)n2cc(Cc2ccccc2)n1Cc1cccc(F)c1 [6-benzyl-7-(3-fluorobenzyl)-3-(tetrahydro-2H-pyran-4-yl)-[1,2,4]triazolo[4,3-a]pyrazin-8(7H)-one] | 32 | 5 | 18 | – | – | –
9 | CCCc1nnc2c(=O)n(Cc3ccccc3Cl)ccn12 [7-(2-Chlorobenzyl)-3-propyl-[1,2,4]triazolo[4,3-a]pyrazin-8(7H)-one] | 2000 | 430 | 2500 | – | – | –
10 | CC(C)CCn1ccn2c(C3CCOCC3)nnc2c1=O [7-isopentyl-3-(tetrahydro-2H-pyran-4-yl)-[1,2,4]triazolo[4,3-a]pyrazin-8(7H)-one] | – | 1100 | – | 47 | 55 | –
11 | CCCc1nnc2c(=O)n(Cc3cccc(F)c3)cc(C)n12 [7-(3-fluorobenzyl)-5-methyl-3-propyl-[1,2,4]triazolo[4,3-a]pyrazin-8(7H)-one] | 1360 | 260 | 1000 | – | – | –
12 | O=c1c2nnc(C3CCOCC3)n2cc(Cc2cccc(F)c2)n1CC1CCCC1 [7-(cyclopentylmethyl)-6-(3-fluorobenzyl)-3-(tetrahydro-2H-pyran-4-yl)-[1,2,4]triazolo[4,3-a]pyrazin-8(7H)-one] | 369 | 27 | 220 | – | – | –
13 | CCCc1nnc2c(=O)n(Cc3cccc(F)c3)c(C)cn12 [7-(3-fluorobenzyl)-6-methyl-3-propyl-[1,2,4]triazolo[4,3-a]pyrazin-8(7H)-one] | 236 | 46 | 190 | – | – | –
14 | O=c1c2nnc(C3CCOCC3)n2cc(Cc2ccc(-c3ccccc3)cc2)n1CC1CCCCC1 [6-([1,1′-biphenyl]-4-ylmethyl)-7-(cyclohexylmethyl)-3-(tetrahydro-2H-pyran-4-yl)-[1,2,4]triazolo[4,3-a]pyrazin-8(7H)-one] | 0.33 | 0.1 | 0.17 | – | – | –
15 | CCCCCCn1ccn2c(C3CCOCC3)nnc2c1=O [7-Hexyl-3-(tetrahydro-2H-pyran-4-yl)-[1,2,4]triazolo[4,3-a]pyrazin-8(7H)-one] | 1260 | 1100 | 1000 | – | – | –
16 | CCCc1nnc2c(=O)n(CC)ccn12 [7-Ethyl-3-propyl-[1,2,4]triazolo[4,3-a]pyrazin-8(7H)-one] | – | – | – | 49 | 71 | 52
17 | CCCc1nnc2c(=O)n(Cc3ccccc3C)ccn12 [7-(2-Methylbenzyl)-3-propyl-[1,2,4]triazolo[4,3-a]pyrazin-8(7H)-one] | – | 2400 | – | 53 | 42 | –
18 | CCCc1nnc2c(=O)n(CC3CCOCC3)ccn12 [3-Propyl-7-((tetrahydro-2H-pyran-4-yl)methyl)-[1,2,4]triazolo[4,3-a]pyrazin-8(7H)-one] | – | 1600 | – | 42 | 47 | –
19 | O=c1c2nnc(C3CCOCC3)n2cc(Br)n1CC1CCCCC1 [6-bromo-7-(cyclohexylmethyl)-3-(tetrahydro-2H-pyran-4-yl)-[1,2,4]triazolo[4,3-a]pyrazin-8(7H)-one] | 12 | 3 | 17 | – | – | –

Now from value to compound:

Row | IC50 (PDE1A) [nM] | IC50 (PDE1C) [nM] | IC50 (PDE1B) [nM] | inhibition at 10 µM (PDE1A) [%] | inhibition at 10 µM (PDE1B) [%] | PDE1C inhibition (nM or %): % inhib (PDE1C; % inhibition of the enzyme at a concentration of 10 micro molar of the compound) [%] | Structure (SMILES)
20 | 770 | 110 | 400 | – | – | – | CCCc1nnc2c(=O)n(Cc3ccccc3)ccn12 [7-Benzyl-3-propyl-[1,2,4]triazolo[4,3-a]pyrazin-8(7H)-one]
21 | 420 | 800 | 290 | – | – | – | O=c1c2nnc(C3CCCC3)n2ccn1Cc1cccc(F)c1 [3-Cyclopentyl-7-(3-fluorobenzyl)-[1,2,4]triazolo[4,3-a]pyrazin-8(7H)-one]
22 | 1100 | 110 | 990 | – | – | – | O=c1c2nnc(C3CCOCC3)n2ccn1CC1CCCC1 [7-(Cyclopentylmethyl)-3-(tetrahydro-2H-pyran-4-yl)-[1,2,4]triazolo[4,3-a]pyrazin-8(7H)-one]
23 | 66 | 44 | 32 | – | – | – | CCCc1nnc2c(=O)n(Cc3ccc(OC)cc3)c(C)cn12 [7-(4-methoxybenzyl)-6-methyl-3-propyl-[1,2,4]triazolo[4,3-a]pyrazin-8(7H)-one]
24 | 320 | 83 | 230 | – | – | – | CCCc1nnc2c(=O)n(CC3CCCC(C)C3)ccn12 (mixture of isomers) [7-((3-methylcyclohexyl)methyl)-3-propyl-[1,2,4]triazolo[4,3-a]pyrazin-8(7H)-one]
25 | 54 | 37 | 34 | – | – | – | COc1ccc(Cn2c(C)cn3c(C4CCOCC4)nnc3c2=O)cc1 [7-(4-methoxybenzyl)-6-methyl-3-(tetrahydro-2H-pyran-4-yl)-[1,2,4]triazolo[4,3-a]pyrazin-8(7H)-one]
26 | 0.86 | 0.37 | 1 | – | – | – | Cc1ccc(Cc2cn3c(C4CCOCC4)nnc3c(=O)n2CC2CCCCCC2)cc1 [7-(cycloheptylmethyl)-6-(4-methylbenzyl)-3-(tetrahydro-2H-pyran-4-yl)-[1,2,4]triazolo[4,3-a]pyrazin-8(7H)-one]
27 | 11 | 4 | 11 | – | – | – | O=c1c2nnc(C3CCOCC3)n2cc(Cc2ccccc2)n1CC1CCCCC1 [6-benzyl-7-(cyclohexylmethyl)-3-(tetrahydro-2H-pyran-4-yl)-[1,2,4]triazolo[4,3-a]pyrazin-8(7H)-one]
28 | 17 | 4 | 37 | – | – | – | Cc1cccc(Cc2cn3c(C4CCOCC4)nnc3c(=O)n2CC2CCCC2)c1 [7-(cyclopentylmethyl)-6-(3-methylbenzyl)-3-(tetrahydro-2H-pyran-4-yl)-[1,2,4]triazolo[4,3-a]pyrazin-8(7H)-one]
29 | 63 | 20 | 99 | – | – | – | CCCc1nnc2c(=O)n(Cc3cccc(F)c3)c(Br)cn12 [6-bromo-7-(3-fluorobenzyl)-3-propyl-[1,2,4]triazolo[4,3-a]pyrazin-8(7H)-one]
30 | 25 | 14 | 39 | – | – | – | Cc1ccccc1Cc1cn2c(C3CCOCC3)nnc2c(=O)n1CC1CCCCCC1 [7-(cycloheptylmethyl)-6-(2-methylbenzyl)-3-(tetrahydro-2H-pyran-4-yl)-[1,2,4]triazolo[4,3-a]pyrazin-8(7H)-one]
31 | 660 | 610 | 560 | – | – | – | CCCc1nnc2c(=O)n(CC3CCC(F)CC3)ccn12 (mixture of isomers) [7-((4-fluorocyclohexyl)methyl)-3-propyl-[1,2,4]triazolo[4,3-a]pyrazin-8(7H)-one]
32 | 7 | 1 | 6 | – | – | – | Cc1ccc(Cc2cn3c(C4CCOCC4)nnc3c(=O)n2Cc2cccc(F)c2)cc1 [7-(3-fluorobenzyl)-6-(4-methylbenzyl)-3-(tetrahydro-2H-pyran-4-yl)-[1,2,4]triazolo[4,3-a]pyrazin-8(7H)-one]
33 | 2500 | 550 | 2700 | – | – | – | CC(F)(F)c1nnc2c(=O)n(Cc3cccc(F)c3)ccn12 [3-(1,1-Difluoroethyl)-7-(3-fluorobenzyl)-[1,2,4]triazolo[4,3-a]pyrazin-8(7H)-one]
